Measured values published in doi:10.1101/2025.08.13.670152v1 (biorxiv, 2025).

Molecular target: CHI3L1/galectin-3 (CHI3L1-His and galectin-3-GST) (Homo sapiens, UniProt P36222)
Assay: AlphaLISA, inhibition of CHI3L1/galectin-3 interaction
Assay type: biochemical
Details: read-out: % inhibition at 100 μM

Sequence of CHI3L1/galectin-3 (CHI3L1-His and galectin-3-GST) (P36222 22-383): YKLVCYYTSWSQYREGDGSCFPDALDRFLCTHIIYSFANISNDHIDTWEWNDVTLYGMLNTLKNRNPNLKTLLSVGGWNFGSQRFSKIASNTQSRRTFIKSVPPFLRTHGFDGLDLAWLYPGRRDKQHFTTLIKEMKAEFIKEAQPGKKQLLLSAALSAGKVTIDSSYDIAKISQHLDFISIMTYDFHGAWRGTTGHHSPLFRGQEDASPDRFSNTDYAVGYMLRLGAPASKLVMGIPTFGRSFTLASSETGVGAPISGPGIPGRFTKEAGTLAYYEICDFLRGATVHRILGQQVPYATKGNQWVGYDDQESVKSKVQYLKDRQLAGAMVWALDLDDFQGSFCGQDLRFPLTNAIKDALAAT
Sequence of CHI3L1/galectin-3 (CHI3L1-His and galectin-3-GST) (P17931 2-250 partner): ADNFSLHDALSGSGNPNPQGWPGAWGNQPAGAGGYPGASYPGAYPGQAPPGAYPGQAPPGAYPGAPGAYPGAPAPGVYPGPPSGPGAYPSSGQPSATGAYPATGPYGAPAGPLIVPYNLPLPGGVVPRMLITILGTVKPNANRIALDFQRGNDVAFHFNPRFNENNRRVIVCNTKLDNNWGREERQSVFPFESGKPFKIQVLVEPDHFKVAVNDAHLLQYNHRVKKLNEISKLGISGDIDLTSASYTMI

inhibition at 100 µM: 27.5 ± 3.1%
SMILES: CC(C)c1cccc(-c2ccc3ncn(C)c(=O)c3c2)c1 [3C13]
